Assay results from patent US9493506B2 (Enanta Pharmaceuticals, Inc., priority 2010, dated 2016).

Key:
[1] = system: HCV replicon with a D168E mutation in a 1a-H77 background; assay: transient replicon assay, D168E mutation in 1a-H77 background; assay type: cell-based, hepatitis C virus (genotype 1a-H77); conditions: Hepatitis C virus, read-out: EC50 in a transient replicon assay with a D168E mutation in a 1a-H77 background
Method in brief: (§1)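 Transient transfection of mutant replicon RNA (1a-H77 with NS2–NS5B, or 1b-N with NS3–NS5B plus E1202G/S2204I) by electroporation into IFN-cured Huh7 cells, plated at 7.5×10^3 cells per well in DMEM with 5% FBS. Serial compound dilutions added 4 h post-transfection (0.5% DMSO final).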

[2] = system: HCV replicon with a D168V mutation in a 1a-H77 background; assay: transient replicon assay, D168V mutation in 1a-H77 background; assay type: cell-based, hepatitis C virus (genotype 1a-H77); conditions: Hepatitis C virus, read-out: EC50 in a transient replicon assay with a D168V mutation in a 1a-H77 background
Method in brief: as §1

[3] = system: HCV replicon with a R155K mutation in a 1b-N background; assay: transient replicon assay, R155K mutation in 1b-N background; assay type: cell-based, hepatitis C virus (genotype 1b-N); conditions: Hepatitis C virus, read-out: EC50 in a transient replicon assay with a R155K mutation in a 1b-N background
Description: Replicon cell lines can be maintained in Dulbecco's modified Eagles medium (DMEM) containing 100 IU/ml penicillin, […] streptomycin (Invitrogen), […] G418 (Invitrogen) and 10% (v/v) fetal bovine serum (FBS). Replicon-containing cells can be seeded into 96 well plates at a density of 5000 cells per well in 100 μl DMEM containing 5% FBS. The next day, the compound can be initially diluted in dimethyl sulfoxide (DMSO) to generate a 200× stock of the inhibitor in a series of 8 half-log dilutions. The dilution series can then be diluted 100-fold in the medium containing 5% FBS. […] The inhibitory effects of compounds against the replicons can be determined by measuring either the level of luciferase or HCV RNA. […] Luciferin solution (50 μl, Promega) is added, and luciferase activity is measured with a Victor II luminometer (Perkin-Elmer). To determine HCV RNA levels, RNA extractions can be performed using the CellsDirect kit (Invitrogen), and the HCV RNA copy number can be measured using the SuperScript III Platinum One-Step qRT-PCR system (Invitrogen) and primers specific to the HCV 5′ nontranslated region. Cytotoxicity can be determined by the 3-[4,5-dimethylhiazol-2-yl]-2,5-diphenyltetrazolium bromide (MTT) colorimetric assay as follows. […] The plates are incubated overnight and the optical density can be measured at 570 nm. […]

Q: What does the source list for CCc1nc2cccc(F)c2nc1O[C@@H]1C[C@H]2C(=O)N[C@]3(C(=O)NS(=O)(=O)C4(C)CC4)C[C@H]3/C=C\CCCCC[C@H](NC(=O)OC(C)(C)C)C(=O)N2C1 [Example 164, tert-butyl (2R,6S,13aS,14aR,16aS,Z)-2-(3-ethyl-8-fluoroquinoxalin-2-yloxy)-14a-(1-methylcyclopropylsulfonylcarbamoyl)-5,16-dioxo-1,2,3,5,6,7,8,9,10,11,13a,14,14a,15,16,16a-hexadecahydrocyclopropa[e]pyrrolo[1,2-a][1,4]diazacyclopentadecin-6-ylcarbamate]?
A: EC50 [1]: 20 to 50 nM; EC50 [2]: 50 to 250 nM; EC50 [3]: 1 to 10 nM
